Measured values taken from ChEMBL document CHEMBL4041509, “Structure-activity relationship study of novel 2-aminobenzofuran derivatives as P-glycoprotein inhibitors” (Eur J Med Chem, 2017).
pIC50: −log10 of the molar value. Active and inactive are the calls of the source. The calls are words filed in the database; no cut-off is given here.

Assays:
[1] = system: HEK293; assay: Potentiation of vincristine-induced cytotoxicity against human Flp-In-293 cells at 2.5 uM by SRB assay relative to control; assay type: functional
[2] = target: T1, ATP-dependent translocase ABCB1 (Homo sapiens, UniProt P08183); assay: Inhibition of ABCB1 (unknown origin) expressed in human Flp-In-293 cells assessed as potentiation of doxorubicin-induced cytotoxicity at 1 uM by SRB assay relative to control; assay type: cell-based
T1 sequence (P08183 whole entry): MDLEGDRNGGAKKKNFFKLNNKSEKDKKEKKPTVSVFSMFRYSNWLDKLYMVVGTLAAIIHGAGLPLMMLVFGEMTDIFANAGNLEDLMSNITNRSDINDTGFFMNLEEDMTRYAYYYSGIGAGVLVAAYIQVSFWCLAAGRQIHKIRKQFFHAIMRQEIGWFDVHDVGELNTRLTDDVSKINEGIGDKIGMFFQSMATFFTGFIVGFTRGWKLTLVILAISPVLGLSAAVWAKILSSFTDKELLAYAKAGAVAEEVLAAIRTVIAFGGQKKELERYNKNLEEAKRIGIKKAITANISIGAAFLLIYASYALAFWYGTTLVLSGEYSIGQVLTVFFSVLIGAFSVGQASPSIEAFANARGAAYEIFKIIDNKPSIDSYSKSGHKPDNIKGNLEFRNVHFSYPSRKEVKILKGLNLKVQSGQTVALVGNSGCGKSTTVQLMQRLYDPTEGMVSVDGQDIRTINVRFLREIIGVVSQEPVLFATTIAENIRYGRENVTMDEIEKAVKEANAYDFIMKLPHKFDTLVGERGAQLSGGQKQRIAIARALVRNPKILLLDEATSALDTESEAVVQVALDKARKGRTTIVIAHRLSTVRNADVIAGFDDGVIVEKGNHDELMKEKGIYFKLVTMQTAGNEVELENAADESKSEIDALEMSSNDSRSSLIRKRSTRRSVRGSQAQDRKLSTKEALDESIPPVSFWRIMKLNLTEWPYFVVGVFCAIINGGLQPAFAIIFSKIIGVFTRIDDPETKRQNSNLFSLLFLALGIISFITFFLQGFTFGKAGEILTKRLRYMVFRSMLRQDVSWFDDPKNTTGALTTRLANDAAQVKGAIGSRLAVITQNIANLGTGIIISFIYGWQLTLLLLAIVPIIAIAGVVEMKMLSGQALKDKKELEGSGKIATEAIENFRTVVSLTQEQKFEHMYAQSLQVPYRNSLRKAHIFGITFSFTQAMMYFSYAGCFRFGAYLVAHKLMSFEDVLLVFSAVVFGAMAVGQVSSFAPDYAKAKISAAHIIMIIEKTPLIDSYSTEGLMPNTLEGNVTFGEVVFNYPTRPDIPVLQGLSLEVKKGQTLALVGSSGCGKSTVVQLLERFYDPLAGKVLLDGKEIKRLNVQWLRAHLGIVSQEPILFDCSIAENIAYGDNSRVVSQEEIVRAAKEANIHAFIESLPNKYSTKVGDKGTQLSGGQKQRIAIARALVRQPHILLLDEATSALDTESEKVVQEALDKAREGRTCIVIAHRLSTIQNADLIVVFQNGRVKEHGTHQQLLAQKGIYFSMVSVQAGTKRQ

[3] = system: HEK293; assay: Effect on ABCB1 mRNA expression in human Flp-In-293 cells expressing ABCB1 at 5 uM after 72 hrs by qRT-PCR method; assay type: functional, cell-based
[4] = organism: Homo sapiens; assay: Inhibition of P-gp in human KBVIN cells assessed as potentiation of vincristine-induced cytotoxicity at 2.5 uM by SRB assay relative to control; assay type: cell-based
[5] = system: HEK293; assay: Potentiation of vincristine-induced cytotoxicity against human Flp-In-293 cells at 1 uM by SRB assay relative to control; assay type: functional
[6] = target: T1, ATP-dependent translocase ABCB1; assay: Inhibition of ABCB1 (unknown origin) expressed in Flp-In-293 cells assessed as increase in calcein-AM uptake at 10 uM preincubated for 30 mins followed by calcein-AM addition measured after 30 mins by fluorescence spectrometric method relative to control; assay type: cell-based; settings: 0.5 h
[7] = organism: Homo sapiens; assay: Inhibition of P-gp in human HeLaS3 cells assessed as potentiation of doxorubicin-induced cytotoxicity at 1 uM by SRB assay relative to control; assay type: cell-based
[8] = system: HEK293; assay: Potentiation of paclitaxel-induced cytotoxicity against human Flp-In-293 cells at 1 uM by SRB assay relative to control; assay type: functional
[9] = system: HEK293; assay: Effect on ABCB1 mRNA expression in human Flp-In-293 cells at 5 uM after 72 hrs by qRT-PCR method; assay type: functional, cell-based
[10] = target: T1, ATP-dependent translocase ABCB1; assay: Inhibition of ABCB1 (unknown origin) expressed in human Flp-In-293 cells assessed as potentiation of vincristine-induced cytotoxicity at 1 uM by SRB assay relative to control; assay type: cell-based
[11] = system: HEK293; assay: Potentiation of doxorubicin-induced cytotoxicity against human Flp-In-293 cells at 2.5 uM by SRB assay relative to control; assay type: functional
[12] = organism: Homo sapiens; assay: Inhibition of P-gp in human HeLaS3 cells assessed as potentiation of paclitaxel-induced cytotoxicity by SRB assay; assay type: cell-based
[13] = organism: Homo sapiens; assay: Inhibition of P-gp in human HeLaS3 cells assessed as potentiation of vincristine-induced cytotoxicity at 2.5 uM by SRB assay relative to control; assay type: cell-based
[14] = organism: Homo sapiens; assay: Inhibition of P-gp in human KBVIN cells assessed as potentiation of paclitaxel-induced cytotoxicity by SRB assay; assay type: cell-based
[15] = organism: Homo sapiens; assay: Inhibition of P-gp in human KBVIN cells assessed as potentiation of vincristine-induced cytotoxicity at 1 uM by SRB assay relative to control; assay type: cell-based
[16] = system: HeLa S3; assay: Cytotoxicity against human HeLaS3 assessed as reduction in cell viability by SRB assay; assay type: cell-based
[17] = organism: Homo sapiens; assay: Inhibition of P-gp in human HeLaS3 cells assessed as potentiation of doxorubicin-induced cytotoxicity at 2.5 uM by SRB assay relative to control; assay type: cell-based
[18] = organism: Homo sapiens; assay: Inhibition of P-gp in human KBVIN cells assessed as potentiation of doxorubicin-induced cytotoxicity by SRB assay; assay type: cell-based
[19] = organism: Homo sapiens; assay: Inhibition of P-gp in human KBVIN cells assessed as potentiation of doxorubicin-induced cytotoxicity at 1 uM by SRB assay relative to control; assay type: cell-based
[20] = organism: Homo sapiens; assay: Inhibition of P-gp in human HeLaS3 cells assessed as potentiation of paclitaxel-induced cytotoxicity at 2.5 uM by SRB assay relative to control; assay type: cell-based
[21] = system: HEK293; assay: Cytotoxicity against human Flp-In-293 cells assessed as reduction in cell viability by SRB assay; assay type: cell-based
[22] = Cytotoxicity against human KBVIN assessed as reduction in cell viability by SRB assay; assay type: cell-based
[23] = target: T1, ATP-dependent translocase ABCB1; assay: Inhibition of ABCB1 (unknown origin) expressed in human Flp-In-293 cells assessed as potentiation of vincristine-induced cytotoxicity by SRB assay; assay type: cell-based
[24] = organism: Homo sapiens; assay: Inhibition of P-gp in human HeLaS3 cells assessed as potentiation of vincristine-induced cytotoxicity at 1 uM by SRB assay relative to control; assay type: cell-based
[25] = system: HEK293; assay: Potentiation of paclitaxel-induced cytotoxicity against human Flp-In-293 cells at 2.5 uM by SRB assay relative to control; assay type: functional
[26] = target: T1, ATP-dependent translocase ABCB1; assay: Inhibition of ABCB1 (unknown origin) expressed in human Flp-In-293 cells assessed as potentiation of doxorubicin-induced cytotoxicity by SRB assay; assay type: cell-based
[27] = organism: Homo sapiens; assay: Inhibition of P-gp in human KBVIN cells assessed as potentiation of paclitaxel-induced cytotoxicity at 2.5 uM by SRB assay relative to control; assay type: cell-based
[28] = organism: Homo sapiens; assay: Inhibition of P-gp in human HeLaS3 cells assessed as potentiation of paclitaxel-induced cytotoxicity at 1 uM by SRB assay relative to control; assay type: cell-based
[29] = target: T1, ATP-dependent translocase ABCB1; assay: Inhibition of ABCB1 (unknown origin) expressed in human Flp-In-293 cells assessed as potentiation of paclitaxel-induced cytotoxicity by SRB assay; assay type: cell-based
[30] = system: HEK293; assay: Potentiation of doxorubicin-induced cytotoxicity against human Flp-In-293 cells at 1 uM by SRB assay relative to control; assay type: functional
[31] = target: T1, ATP-dependent translocase ABCB1; assay: Inhibition of ABCB1 (unknown origin) expressed in human Flp-In-293 cells assessed as potentiation of paclitaxel-induced cytotoxicity at 1 uM by SRB assay relative to control; assay type: cell-based
[32] = system: HEK293; assay: Cytotoxicity against human Flp-In-293 cells expressing MDR1 assessed as reduction in cell viability by SRB assay; assay type: ADME, cell-based
[33] = organism: Homo sapiens; assay: Inhibition of P-gp in human HeLaS3 cells assessed as potentiation of vincristine-induced cytotoxicity by SRB assay; assay type: cell-based
[34] = target: T1, ATP-dependent translocase ABCB1; assay: Inhibition of ABCB1 (unknown origin) expressed in human Flp-In-293 cells assessed as potentiation of paclitaxel-induced cytotoxicity at 2.5 uM by SRB assay relative to control; assay type: cell-based
[35] = organism: Homo sapiens; assay: Inhibition of P-gp in human HeLaS3 cells assessed as potentiation of doxorubicin-induced cytotoxicity by SRB assay; assay type: cell-based
[36] = organism: Homo sapiens; assay: Inhibition of P-gp in human KBVIN cells assessed as potentiation of paclitaxel-induced cytotoxicity at 1 uM by SRB assay relative to control; assay type: cell-based
[37] = target: T1, ATP-dependent translocase ABCB1; assay: Inhibition of ABCB1 (unknown origin) expressed in human Flp-In-293 cells assessed as potentiation of doxorubicin-induced cytotoxicity at 2.5 uM by SRB assay relative to control; assay type: cell-based
[38] = target: T1, ATP-dependent translocase ABCB1; assay: Inhibition of ABCB1 (unknown origin) expressed in Flp-In-293 cells assessed as increase in calcein-AM uptake at 5 uM preincubated for 30 mins followed by calcein-AM addition measured after 30 mins by fluorescence spectrometric method relative to control; assay type: cell-based; settings: 0.5 h
[39] = organism: Homo sapiens; assay: Inhibition of P-gp in human KBVIN cells assessed as potentiation of doxorubicin-induced cytotoxicity at 2.5 uM by SRB assay relative to control; assay type: cell-based
[40] = organism: Homo sapiens; assay: Inhibition of P-gp in human KBVIN cells assessed as potentiation of vincristine-induced cytotoxicity by SRB assay; assay type: cell-based
[41] = target: T1, ATP-dependent translocase ABCB1; assay: Inhibition of ABCB1 (unknown origin) expressed in human Flp-In-293 cells assessed as potentiation of vincristine-induced cytotoxicity at 2.5 uM by SRB assay relative to control; assay type: cell-based

Q: Which “fold change (FC)” value [1] does the source give for COc1ccc(-c2cc(OCCN3CCCC3)c3c(-c4cccs4)c(N)oc3c2)cc1OC here?
A: The value was 8.36.

Q: And the “fold change (FC)” value [2]?
A: The value was 2.78.

Q: And the Activity [3]?
A: Its Activity is “inactive”.

Q: And the fold change (FC) [4]?
A: Its fold change (FC) is 34.2.

Q: And the “fold change (FC)” value [5]?
A: Its value is 4.25.

Q: And the “fold change (FC)” value [6]?
A: Its value is 9.12.

Q: And the fold change (FC) [7]?
A: The fold change (FC) was 0.9.

Q: And the “fold change (FC)” value [8]?
A: Its value is 0.92.

Q: What about the Activity [9] of the same molecule?
A: The Activity was “inactive”.

Q: And the “fold change (FC)” value [10]?
A: Its value is 1.69.

Q: And the “fold change (FC)” value [11]?
A: The value was 0.96.

Q: And the inhibition [12]?
A: Its inhibition is “Dose-dependent effect”.

Q: What about the fold change (FC) [13] of the same molecule?
A: Its fold change (FC) is 1.08.

Q: What about the inhibition [14] of the same molecule?
A: Its inhibition is “Dose-dependent effect”.

Q: And the fold change (FC) [15]?
A: Its fold change (FC) is 25.7.

Q: And the pIC50 [16]?
A: The pIC50 was 4.42.

Q: And the fold change (FC) [17]?
A: The fold change (FC) was 2.71.

Q: What about the inhibition [18] of the same molecule?
A: Its inhibition is “Dose-dependent effect”.

Q: What about the fold change (FC) [19] of the same molecule?
A: The fold change (FC) was 1.51.

Q: What about the fold change (FC) [20] of the same molecule?
A: The fold change (FC) was 3.97.

Q: And the pIC50 [21]?
A: The pIC50 was 4.44.

Q: And the pIC50 [22]?
A: Its pIC50 is 4.44.

Q: And the “inhibition (INH)” value [23]?
A: The value was “Dose-dependent effect”.

Q: What about the fold change (FC) [24] of the same molecule?
A: The fold change (FC) was 1.17.

Q: What about the “fold change (FC)” value [25] of the same molecule?
A: Its value is 1.38.

Q: What about the “inhibition (INH)” value [26] of the same molecule?
A: The value was “Dose-dependent effect”.

Q: And the fold change (FC) [27]?
A: Its fold change (FC) is 9.27.

Q: What about the fold change (FC) [28] of the same molecule?
A: Its fold change (FC) is 3.8.

Q: What about the “inhibition (INH)” value [29] of the same molecule?
A: The value was “Dose-dependent effect”.

Q: And the “fold change (FC)” value [30]?
A: Its value is 0.91.

Q: What about the “fold change (FC)” value [31] of the same molecule?
A: Its value is 1.23.

Q: What about the pIC50 [32] of the same molecule?
A: The pIC50 was 4.43.

Q: And the inhibition [33]?
A: Its inhibition is “Dose-dependent effect”.

Q: What about the “fold change (FC)” value [34] of the same molecule?
A: Its value is 2.65.

Q: And the inhibition [35]?
A: Its inhibition is “Dose-dependent effect”.

Q: And the fold change (FC) [36]?
A: The fold change (FC) was 2.55.

Q: What about the “fold change (FC)” value [37] of the same molecule?
A: Its value is 3.95.

Q: And the “fold change (FC)” value [38]?
A: Its value is 8.52.

Q: What about the fold change (FC) [39] of the same molecule?
A: Its fold change (FC) is 1.88.

Q: What about the inhibition [40] of the same molecule?
A: Its inhibition is “Dose-dependent effect”.

Q: And the “fold change (FC)” value [41]?
A: The value was 5.92.
